The values that follow are results of earlier work, collected in US12409146B2, “Solid lipid nanoparticle for intracellular release of active substances and method for production the same” (LEAD BIOTHERAPEUTICS LTD, priority 2017, dated 2025).

The structures appear in SMILES notation. Values after ≈ are worked out from the molar mass of the structure shown.

Regarding `C[C@@H]1C[C@H]2[C@@H]3CCC4=CC(=O)C=C[C@]4(C)[C@@]3(Cl)[C@@H](O)C[C@]2(C)[C@@]1(OC(=O)c1ccco1)C(=O)CCl` [Mometasone furoate], the water solubility is 5.23 µg/mL (≈ 10 µM).
